Molecules are shown by their SMILES.

This experiment concerns beta-TC6 cells. Description: Insulin HTRF assay (relative activity Ar) in beta-TC6 cells. The experiment is classed as cell-based, mouse. The note with it: Mus musculus, Beta-TC6, 4 h, insulin HTRF, supernatant of beta-TC6 cells, incubation with test compound at 37°C for 2, 3, 4h; read-out: Ar (relative activity). The procedure, abridged:
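beta-TC6 cells (15k/well, seeded 24 or 48 h) washed, then exposed to compound in induction buffer (0.5% DMSO final) for 2, 3 or 4 h at 37°C.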
As for `FC(F)(F)c1cccc(Nc2nccc3[nH]c(-c4ccccc4Cl)nc23)c1` [Compound 462, 2-(2-chlorophenyl)-N-[3-(trifluoromethyl)phenyl]-1H-imidazo[4,5-c]pyridin-4-amine], the Emax lay within 0 to 30%.

On to `COc1cc(Nc2cc3c(cn2)nc(Cc2ccccc2)n3C)cc(OC)c1OC` [Compound 699, 2-benzyl-1-methyl-N-(3,4,5-trimethoxyphenyl)imidazo[4,5-c]pyridin-6-amine], for which the Emax lay in the range of 50 to 100%. Under `COc1ccc(Nc2cc3c(cn2)ncn3Cc2ccco2)cc1` [Compound 693, 1-(2-furylmethyl)-N-(4-methoxyphenyl)imidazo[4,5-c]pyridin-6-amine] stands 50 to 100%. For the compound `OCCNc1nccc2[nH]c(-c3ccc4c(c3)OCCO4)nc12` [Compound 416, 2-[[2-(2,3-dihydro-1,4-benzodioxin-6-yl)-1H-imidazo[4,5-c]pyridin-4-yl]amino]ethanol], the Emax was 30 to 50%. As for `Fc1cccc(Nc2cc3[nH]c(-c4ccccn4)cc3cn2)c1` [Compound 71, N-(3-fluorophenyl)-2-(2-pyridyl)-1H-pyrrolo[3,2-c]pyridin-6-amine], the figure is 50 to 100%; as for `COc1ccc(Nc2nccc3[nH]c(-c4ccc(OC)c(OC)c4)nc23)cc1` [Compound 345, 2-(3,4-dimethoxyphenyl)-N-(4-methoxyphenyl)-1H-imidazo[4,5-c]pyridin-4-amine], more than 100%.

Take `COc1ccc(-c2nc3cnc(Nc4cc(OC)c(OC)c(OC)c4)cc3n2C)cc1OC` [Compound 716, 2-(3,4-dimethoxyphenyl)-1-methyl-N-(3,4,5-trimethoxyphenyl)imidazo[4,5-c]pyridin-6-amine]: the Emax was in the range of 50 to 100%.

Regarding `COc1ccc(OC)c(CCNc2nc3cnc(-c4cccc(O)c4)cc3n2C)c1` [Compound 820, 3-[2-[2-(2,5-dimethoxyphenyl)ethylamino]-1-methyl-imidazo[4,5-c]pyridin-6-yl]phenol], the Emax was 30 to 50%.

Take `COc1ccc(-c2nc3c(Nc4ccc(OC)c(O)c4)nccc3[nH]2)cc1` [Compound 398, 2-methoxy-5-[[2-(4-methoxyphenyl)-1H-imidazo[4,5-c]pyridin-4-yl]amino]phenol]: the Emax was more than 100%. As for `CNC(=O)c1cccc(-c2cc3c(cn2)nc(NCCOC)n3C)c1` [Compound 652, 3-[2-(2-methoxyethylamino)-1-methyl-imidazo[4,5-c]pyridin-6-yl]-N-methyl-benzamide], the figure is 50 to 100%. Under `COc1ccc(Nc2cc3[nH]c(-c4ccccn4)cc3cn2)cc1` [Compound 65, N-(4-methoxyphenyl)-2-(2-pyridyl)-1H-pyrrolo[3,2-c]pyridin-6-amine] stands more than 100%; under `Fc1ccc(Nc2nccc3[nH]c(-c4ccccc4Cl)nc23)cc1Cl` [Compound 461, N-(3-chloro-4-fluoro-phenyl)-2-(2-chlorophenyl)-1H-imidazo[4,5-c]pyridin-4-amine], 0 to 30%. Under `CNc1nc2cnc(-c3cccs3)cc2n1-c1ccccc1` [Compound 514, N-methyl-1-phenyl-6-(2-thienyl)imidazo[4,5-c]pyridin-2-amine] stands 30 to 50%; under `CNc1nc2cnc(-c3ccc(F)c(Cl)c3)cc2n1-c1ccccc1` [Compound 784, 6-(3-chloro-4-fluoro-phenyl)-N-methyl-1-phenyl-imidazo[4,5-c]pyridin-2-amine], 0 to 30%. `CC(C)c1cccc(Nc2nccc3c2cc(-c2ccc(C(=O)N(C)C)cc2)n3C)c1` [Compound 224, 4-[4-(3-isopropylanilino)-1-methyl-pyrrolo[3,2-c]pyridin-2-yl]-N,N-dimethyl-benzamide]: the Emax lay in the range of 0 to 30%. As for `CN(C)C(=O)c1ccc(-c2cc3c(Nc4cccc(N(C)C)c4)nccc3n2C)cc1` [Compound 218, 4-[4-[3-(dimethylamino)anilino]-1-methyl-pyrrolo[3,2-c]pyridin-2-yl]-N,N-dimethyl-benzamide], the figure is 50 to 100%.

With `COc1ccc(-c2nc3c(N4CCOCC4)nccc3[nH]2)cc1OC` [Compound 353, 4-[2-(3,4-dimethoxyphenyl)-1H-imidazo[4,5-c]pyridin-4-yl]morpholine], the Emax is 50 to 100%. Turning to `Oc1cccc(-c2nc3c(N4CCOCC4)nccc3[nH]2)c1` [Compound 363, 3-(4-morpholino-1H-imidazo[4,5-c]pyridin-2-yl)phenol], the Emax fell in the range of 30 to 50%. Under `CNc1nc2cnc(Nc3ccccc3)cc2n1Cc1ccc(OC)c(OC)c1` [Compound 667, 1-[(3,4-dimethoxyphenyl)methyl]-N2-methyl-N6-phenyl-imidazo[4,5-c]pyridine-2,6-diamine] stands 30 to 50%; under `CC(=O)Nc1ccc(Nc2nccc3[nH]c(-c4ccsc4)cc23)cc1` [Compound 249, N-[4-[[2-(3-thienyl)-1H-pyrrolo[3,2-c]pyridin-4-yl]amino]phenyl]acetamide], more than 100%; under `COc1ccc(Nc2nccc3c2cc(-c2cccc(F)c2)n3C)cc1OC` [Compound 208, N-(3,4-dimethoxyphenyl)-2-(3-fluorophenyl)-1-methyl-pyrrolo[3,2-c]pyridin-4-amine], 30 to 50%. Under `COCCNc1nc2cnc(Nc3cc(OC)c(OC)c(OC)c3)cc2n1C` [Compound 645, N2-(2-methoxyethyl)-1-methyl-N6-(3,4,5-trimethoxyphenyl)imidazo[4,5-c]pyridine-2,6-diamine] stands 30 to 50%; under `Cn1c(-c2cccnc2)cc2cnc(Nc3ccc(F)cc3)cc21` [Compound 92, N-(4-fluorophenyl)-1-methyl-2-(3-pyridyl)pyrrolo[3,2-c]pyridin-6-amine], 0 to 30%. With `COc1cccc(-c2nc3c(Nc4cccc(S(C)(=O)=O)c4)nccc3[nH]2)c1F` [Compound 477, 2-(2-fluoro-3-methoxy-phenyl)-N-(3-methylsulfonylphenyl)-1H-imidazo[4,5-c]pyridin-4-amine], the Emax fell in the range of 30 to 50%. As for `CC(=O)Nc1cccc(Nc2nccc3c2cc(-c2ccsc2)n3C)c1` [Compound 287, N-[3-[[1-methyl-2-(3-thienyl)pyrrolo[3,2-c]pyridin-4-yl]amino]phenyl]acetamide], the figure is 50 to 100%. As for `Cc1cccc(CNc2nc3cnc(Nc4cccc(O)c4)cc3n2C)c1` [Compound 585, 3-[[1-methyl-2-(m-tolylmethylamino)imidazo[4,5-c]pyridin-6-yl]amino]phenol], the Emax is 50 to 100%. Under `CC(C)Oc1cccc(Nc2cc3[nH]c(-c4ccc(C(=O)N(C)C)cc4)cc3cn2)c1` [Compound 44, 4-[6-(3-isopropoxyanilino)-1H-pyrrolo[3,2-c]pyridin-2-yl]-N,N-dimethyl-benzamide] stands 30 to 50%. As for `CNc1nc2cnc(Nc3ccc(OC(C)C)cc3)cc2n1CCOC` [Compound 500, N6-(4-isopropoxyphenyl)-1-(2-methoxyethyl)-N2-methyl-imidazo[4,5-c]pyridine-2,6-diamine], the figure is 50 to 100%; as for `FC(F)(F)Oc1cccc(Nc2cc3[nH]c(-c4ccccn4)cc3cn2)c1` [Compound 69, 2-(2-pyridyl)-N-[3-(trifluoromethoxy)phenyl]-1H-pyrrolo[3,2-c]pyridin-6-amine], 30 to 50%; as for `CNc1nc2cnc(Nc3cccc(OC)c3)cc2n1Cc1ccc(OC)c(OC)c1` [Compound 662, 1-[(3,4-dimethoxyphenyl)methyl]-N6-(3-methoxyphenyl)-N2-methyl-imidazo[4,5-c]pyridine-2,6-diamine], 50 to 100%. Under `COc1ccc(-c2nc3c(NCc4ccc(N(C)C)cc4)nccc3[nH]2)cc1OC` [Compound 350, 2-(3,4-dimethoxyphenyl)-N-[(4-dimethylaminophenyl)methyl]-1H-imidazo[4,5-c]pyridin-4-amine] stands 30 to 50%; under `CNc1nc2cnc(Nc3cc(OC)c(OC)c(OC)c3)cc2n1-c1cccc(C(F)(F)F)c1` [Compound 539, N2-methyl-1-[3-(trifluoromethyl)phenyl]-N6-(3,4,5-trimethoxyphenyl)imidazo[4,5-c]pyridine-2,6-diamine], 30 to 50%. For the compound `c1ccc(Cn2c(-c3cccnc3)cc3cnc(Nc4ccncn4)cc32)cc1` [Compound 99, 1-benzyl-2-(3-pyridyl)-N-pyrimidin-4-yl-pyrrolo[3,2-c]pyridin-6-amine], the Emax was 30 to 50%.

Regarding `COc1ccc(-c2nc3cnc(Nc4ccc(C(N)=O)cc4)cc3n2C)cc1OC` [Compound 719, 4-[[2-(3,4-dimethoxyphenyl)-1-methyl-imidazo[4,5-c]pyridin-6-yl]amino]benzamide], the Emax lay in the range of 30 to 50%. As to `CN(C)c1cccc(Nc2cc3[nH]c(-c4cn[nH]c4)cc3cn2)c1` [Compound 112, N1,N1-dimethyl-N3-[2-(1H-pyrazol-4-yl)-1H-pyrrolo[3,2-c]pyridin-6-yl]benzene-1,3-diamine], the Emax was 50 to 100%. As for `CN(C)C(=O)c1ccc(Nc2cc3c(cn2)nc(-c2ccco2)n3C)cc1` [Compound 711, 4-[[2-(2-furyl)-1-methyl-imidazo[4,5-c]pyridin-6-yl]amino]-N,N-dimethyl-benzamide], the figure is 50 to 100%; as for `CN(C)C(=O)c1ccc(-c2cc3c(Nc4cccc(NS(C)(=O)=O)c4)nccc3n2C)cc1` [Compound 225, 4-[4-[3-(methanesulfonamido)anilino]-1-methyl-pyrrolo[3,2-c]pyridin-2-yl]-N,N-dimethyl-benzamide], 30 to 50%. Under `COc1cccc(-c2nc3c(NCCc4ccccn4)nccc3[nH]2)c1` [Compound 371, 2-(3-methoxyphenyl)-N-[2-(2-pyridyl)ethyl]-1H-imidazo[4,5-c]pyridin-4-amine] stands 30 to 50%; under `CNc1nc2cnc(Nc3cccnc3)cc2n1-c1ccccc1` [Compound 507, N2-methyl-1-phenyl-N6-(3-pyridyl)imidazo[4,5-c]pyridine-2,6-diamine], 30 to 50%; under `COc1ccc(-c2cc3c(cn2)nc(NCc2ccccc2)n3C)cc1` [Compound 839, N-benzyl-6-(4-methoxyphenyl)-1-methyl-imidazo[4,5-c]pyridin-2-amine], 30 to 50%.
